In PMC5323493, “Synthesis and pre-clinical evaluation of a new class of high-affinity ^18F-labeled PSMA ligands for detection of prostate cancer by PET imaging” (European Journal of Nuclear Medicine and Molecular Imaging, 2016):
pIC50: −log10 of the molar value. Read-outs that look alike come from different tables or passages of the source. Marks after values point to notes of the source that are not given here.

Assays:
[1] = tested on: LNCaP xenograft tumor; assay: μPET/CT imaging of LNCaP xenograft tumor-bearing mice; assay type: in vivo; settings: for Max. LNCaP Tumor Uptake Time p.i.: image derived; for Max. LNCaP Tumor Uptake: image derived calculation (ROI), at time of maximum uptake; for route of clearance: from μPET/CT images
Text: (§1) All animal studies were approved by the Institutional Animal Care and Use Committee of Weill Cornell Medicine and were undertaken in accordance with the guidelines set forth by the USPHS Policy on Humane Care and Use of Laboratory Animals. Animals were housed under standard conditions in approved facilities with 12-h light/dark cycles. Food and water was provided ad libitum throughout the course of the studies. Male inbred athymic nu/nu mice were purchased from The Jackson Laboratory. For inoculation in mice, LNCaP cells were suspended at 4 x 10^7 cells/mL in a 1:1 mixture of PBS:Matrigel (BD Biosciences). Each mouse was injected in the left flank with 0.25 mL of the cell suspension. The mice were imaged when the tumors reached approximately 200–400 mm^3, while biodistributions were conducted when tumors were in the range 100–400 mm^3.
Specific activity was greater than 190 GBq/μmol. The mice were imaged by μPET/CT (Inveon™; Siemens Medical Solutions, Inc.) at 1 h, 2 h, 4 h and 6 h p.i. ([^18F]fluorinated compounds) or 1 h and 3 h p.i. ([^68Ga]Ga-PSMA-HBED-CC). Total acquisition time was thirty minutes, and a CT scan was obtained either immediately before or immediately after the acquisition for both anatomical co-registration and attenuation correction. The data were reconstructed using the commercial Inveon™ software supplied by the vendor. Tumor uptake was estimated by drawing a region of interest (ROI).

[2] = biological target: T1, PSMA (Homo sapiens, UniProt Q04609); assay: competitive binding assay against 99mTc-MIP-1427 on LNCaP cells; settings: non-radioactive ligands, 1 nM 99mTc-MIP-1427, 1 h
T1 construct: host or cells: LNCaP
Protocol: The human prostate cancer cell line, LNCaP, was obtained from the American Type Culture Collection. Cell culture supplies were from Invitrogen unless otherwise noted. LNCaP cells were maintained in RPMI-1640 medium supplemented with 10 % fetal bovine serum (Hyclone), 4 mM L-glutamine, 1 mM sodium pyruvate, 10 mM N-2-hydroxyethylpiperazine-N-2-ethanesulfonic acid (HEPES), 2.5 mg/mL D-glucose, and 50 μg/mL gentamicin in a humidified incubator at 37 °C/5 % CO2. Cells were removed from flasks for passage or for transfer to 12-well assay plates by incubating them with 0.25 % trypsin/ethylenediaminetetraacetic acid (EDTA).
The 50 % inhibition concentrations (IC50 ) values of the non-radioactive fluorine-containing ligands were determined by screening in a multi-concentration competitive binding assay against ^99mTc- ((7S,12S,16S)-1-(1-(carboxymethyl)-1H-imidazol-2-yl)-2-((1-(carboxymethyl)-1H-imidazol-2-yl)methyl)-9,14-dioxo-2,8,13,15-tetraazaoctadecane-7,12,16,18-tetracarboxylic acid technetium tricarbonyl complex; ^99mTc-MIP-1427) for binding to PSMA on LNCaP cells, according to methods previously described. The LNCaP cells were plated 48 hours prior to the experiment to achieve a density of approximately 5 x 10^5 cells/well (in triplicate) in RPMI-1640 medium supplemented with 0.25 % bovine serum albumin prior to performing the assay. LNCaP cells were incubated for 1 hour with 1 nM ^99mTc-MIP-1427 in serum-free RPMI-1640 medium in the presence of 1–10,000 nM test compounds. Radioactive incubation media was then removed by pipette and the cells were washed twice using 1 mL of ice-cold HEPES buffer. Cells were harvested from the plates and transferred to tubes for radioactive counting using a Packard Cobra II gamma counter. IC50 values were determined by non-linear regression using GraphPad Prism software.

[3] = tested on: LNCaP xenograft tumor; assay: ex vivo biodistribution in LNCaP xenograft tumor-bearing mice; settings: for tumor uptake / Max. LNCaP Tumor Uptake: n = 5; for tumor uptake relative to [68Ga]Ga-PSMA-HBED-CC: at the time of maximum tumor uptake; for Max. LNCaP Tumor Uptake Time p.i. / Max. LNCaP Tumor Uptake: biodistribution
Text: as §1
LNCaP xenograft tumor-bearing mice (n = 5 per time point) were injected via the tail vein with a bolus injection of 370 kBq (10 μCi) of either [^18F]RPS-040 or [^18F]RPS-041. The specific activity of the compounds was 341 GBq/μmol and 391 GBq/μmol, respectively. The mice were euthanized by asphyxiation under isofluorane at 1 h, 2 h and 4 h p.i. An additional set of mice (n = 5) was co-administered [^18F]RPS-040 (370 kBq; 10 μCi) and 2-PMPA (approx. 250 μg; 10 mg/kg) and sacrificed at 1 h p.i. to determine the uptake specificity. A full biodistribution study was conducted on all mice, and tissues were excised, weighed and counted in an automated γ-counter. Tissue time-activity values were expressed as percentage injected dose per gram of tissue (%ID/g). Statistical comparisons were performed using the standard Student’s t test for a 95 % confidence interval.

[4] = tested on: LNCaP xenograft tumor; settings: cited from earlier work
[5] = 1 h p.i., co-administered with 2-PMPA

T1 sequence (Q04609 whole entry): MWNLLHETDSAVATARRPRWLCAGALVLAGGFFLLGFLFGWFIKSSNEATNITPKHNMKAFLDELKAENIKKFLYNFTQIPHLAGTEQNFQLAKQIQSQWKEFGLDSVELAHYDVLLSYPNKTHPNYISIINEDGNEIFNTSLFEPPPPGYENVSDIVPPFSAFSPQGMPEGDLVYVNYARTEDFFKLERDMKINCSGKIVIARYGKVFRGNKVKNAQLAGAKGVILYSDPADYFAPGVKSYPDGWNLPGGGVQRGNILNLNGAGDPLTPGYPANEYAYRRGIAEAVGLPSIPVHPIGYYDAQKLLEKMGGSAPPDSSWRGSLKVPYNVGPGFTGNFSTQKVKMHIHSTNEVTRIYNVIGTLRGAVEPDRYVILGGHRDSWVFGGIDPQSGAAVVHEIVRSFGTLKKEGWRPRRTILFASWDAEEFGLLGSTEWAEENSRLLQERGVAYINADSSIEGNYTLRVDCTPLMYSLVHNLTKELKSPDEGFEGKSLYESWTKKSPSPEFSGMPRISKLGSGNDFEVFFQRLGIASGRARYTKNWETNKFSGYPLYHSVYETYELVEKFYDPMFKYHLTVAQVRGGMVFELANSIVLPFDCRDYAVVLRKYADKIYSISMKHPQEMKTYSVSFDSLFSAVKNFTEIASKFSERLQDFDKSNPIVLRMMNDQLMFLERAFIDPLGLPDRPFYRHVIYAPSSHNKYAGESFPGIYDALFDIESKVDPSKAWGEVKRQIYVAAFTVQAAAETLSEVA

O=C(O)CC[C@H](NC(=O)N[C@@H](CCCCNC(=O)Nc1ccc(OCc2cn(CCF)nn2)cc1)C(=O)O)C(=O)O [RPS-038]
Max. LNCaP Tumor Uptake Time p.i. [1]: 2 h
Max. LNCaP Tumor Uptake [1]: 8.87 ± 0.64^c %ID/g
pIC50 [2]: 7.67

O=C(O)CC[C@H](NC(=O)N[C@@H](CCCCNC(=O)Nc1cccc(-c2cn(CCF)nn2)c1)C(=O)O)C(=O)O [RPS-040]
Max. LNCaP Tumor Uptake [1]: 14.30 %ID/g
pIC50 [2]: 8.15
tumor-to-blood ratio ([3]; 1 h p.i.): 28.8 ± 8.06
tumor-to-blood ratio relative to [68Ga]Ga-PSMA-HBED-CC ([3]; 1 h p.i.): three-fold greater
tumor-to-kidney ratio relative to [68Ga]Ga-PSMA-HBED-CC ([3]; 1 h p.i.): ten
kidneys uptake [3, 5]: 5.95 ± 1.65 %ID/g
spleen uptake [3, 5]: 0.32 ± 0.05 %ID/g
tumor uptake ([3]; 1 h p.i., co-administered with 2-PMPA (10 mg/kg)): 1.75 ± 0.15 %ID/g
kidneys uptake ([3]; 1 h p.i., unblocked): 74.24 ± 10.71 %ID/g
spleen uptake ([3]; 1 h p.i., unblocked): 4.97 ± 1.55 %ID/g
tumor uptake ([3]; 1 h p.i., unblocked): 12.69 ± 1.56 %ID/g
uptake in the kidneys ([3]; 2 h p.i.): 60.94 ± 8.06 %ID/g
uptake in the liver ([3]; 2 h p.i.): 4.72 ± 0.93 %ID/g
uptake in the spleen ([3]; 2 h p.i.): 3.23 ± 1.26 %ID/g
tumor-to-blood ratio ([3]; 4 h p.i.): 92.93 ± 75.67
tumor uptake relative to [68Ga]Ga-PSMA-HBED-CC [3]: more than two-fold greater
Max. LNCaP Tumor Uptake Time p.i. [3]: 2 h
Max. LNCaP Tumor Uptake ([3]; 2 h p.i.): 14.30 ± 2.49 %ID/g
Max. LNCaP Tumor Uptake ([3]; 2 h p.i., listed as [^18F]RPS-040): > 10 %ID/g

O=C(O)CC[C@H](NC(=O)N[C@@H](CCCCNC(=O)Nc1cccc(OCc2cn(CCF)nn2)c1)C(=O)O)C(=O)O [RPS-043]
Max. LNCaP Tumor Uptake Time p.i. [1]: 2 h
Max. LNCaP Tumor Uptake [1]: 9.04 ± 1.88^c %ID/g
pIC50 [2]: 7.44

O=C(O)CC[C@H](NC(=O)N[C@@H](CCCCNC(=O)Nc1ccccc1-c1cn(CCF)nn1)C(=O)O)C(=O)O [RPS-042]
route of clearance [1]: clearance via the hepatobiliary pathway in addition to renal excretion
Max. LNCaP Tumor Uptake Time p.i. [1]: 2 h
Max. LNCaP Tumor Uptake [1]: 10.06 ± 1.33^c %ID/g
pIC50 [2]: 7.99

O=C(O)CCC(NC(=O)NC(CCCCNC(=O)c1ccc([18F])nc1)C(=O)O)C(=O)O (centres unmarked) [DCFPyL, 2-(3-{1-carboxy-5-[(6-[18F]fluoro-pyridine-3-carbonyl)-amino]-pentyl}-ureido)-pentanedioic acid, reference compound]
Max. LNCaP Tumor Uptake Time p.i. [1]: 1 h
Max. LNCaP Tumor Uptake [1]: 5.71 ± 0.61^c %ID/g
maximum standardized uptake value (SUVmax) ([4]; LNCaP tumor xenografts, 1 h p.i.): 1.1 ± 0.1

O=C(O)CC[C@H](NC(=O)N[C@@H](CCCCNC(=O)Nc1ccc(-c2cn(CCF)nn2)cc1)C(=O)O)C(=O)O [RPS-041]
Max. LNCaP Tumor Uptake [1]: 12.51 %ID/g
pIC50 [2]: 8.49
tumor-to-blood ratio ([3]; 1 h p.i.): 20.78 ± 7.87
tumor-to-blood ratio relative to [68Ga]Ga-PSMA-HBED-CC ([3]; 1 h p.i.): more than two-fold
tumor-to-kidney ratio relative to [68Ga]Ga-PSMA-HBED-CC ([3]; 1 h p.i.): twelve-fold greater
contrast (tumor-to-background) relative to [18F]RPS-040 ([3]; 2 h p.i.): two-fold greater
uptake in the kidneys ([3]; 2 h p.i.): 23.93 ± 5.45 %ID/g
uptake in the liver ([3]; 2 h p.i.): 2.51 ± 0.21 %ID/g
uptake in the spleen ([3]; 2 h p.i.): 1.13 ± 0.47 %ID/g
tumor-to-blood ratio ([3]; 4 h p.i.): 118.4 ± 69.4
tumor uptake relative to [68Ga]Ga-PSMA-HBED-CC [3]: nearly two-fold greater
Max. LNCaP Tumor Uptake Time p.i. [3]: 2 h
Max. LNCaP Tumor Uptake ([3]; 2 h p.i.): 10.86 ± 1.03 %ID/g
Max. LNCaP Tumor Uptake ([3]; 2 h p.i., listed as [^18F]RPS-041): > 10 %ID/g

O=C(O)CC[C@H](NC(=O)N[C@@H](CCCCNC(=O)Nc1ccc(I)cc1)C(=O)O)C(=O)O [MIP-1095]
Max. LNCaP Tumor Uptake [4]: 34.3 ± 12.7^a %ID/g
Max. LNCaP Tumor Uptake Time p.i. [4]: 4 h
pIC50 [2]: 9.52

O=C(O)CC[C@H](NC(=O)N[C@@H](CCCCNC(=O)Nc1ccccc1OCc1cn(CCF)nn1)C(=O)O)C(=O)O [RPS-039]
route of clearance [1]: clearance via the hepatobiliary pathway in addition to renal excretion
Max. LNCaP Tumor Uptake Time p.i. [1]: 2 h
Max. LNCaP Tumor Uptake [1]: 5.89 ± 0.27^c %ID/g
pIC50 [2]: 7.85
